Measured values reported in patent US5633230A, “Treatment of cytomegalovirus infection” (priority 1994, dated 1997).
Converted amounts (≈) assume the structure as drawn. “And” between values parts separate entries of the source, which are not always exact repeats. Equal values may be shown once.

What was measured:
[1] = tested on: CMV strain AD-169; assay: plaque reduction assay, CMV AD-169 in MRC-5 cells; assay type: cell-based, human CMV; conditions: CMV AD-169, MRC-5 (human embryonic lung), 24 h drug pretreatment
Method: (§1) The following procedures were then used to determine inhibitory effects of AV-9 on the replication of CMV. […] This was accomplished by diluting the stock peptide solution in growth medium (10% fetal bovine serum and 10 μg/ml gentamicin in Dulbecco's MEM (DMEM)) used to overlay the monolayers.
(§2) After pretreatment with AV-9, the monolayers were overlaid with 0.1 ml log10 dilutions of virus (CMV strain AD-169) ranging from 10^-1 to 10^-6. Virus was then allowed to adsorb for 1 hour at 37° C. The virus inoculum was removed and the monolayers were overlayed with DMEM containing 2% FBS, 10 ug/ml gentamicin and a specified concentration of AV-9. Virus was next allowed to replicate for 7 to 10 days until the plaques were judged to be well developed, and then the monolayers were fixed and stained with a solution of 1% crystal violet in 1% formaldehyde,70% ethanol. Finally, plaques (each representing a single viable virion) were counted and checked microscopically.
(§3) In a like manner, plaque reduction assays were also performed against other CMV strains and another CMV host, with comparison against ganciclovir (GCV) and foscarnet (FCV).

[2] = tested on: CMV strain AD-169; assay: plaque reduction assay, CMV AD-169 in HFF cells; assay type: cell-based, human CMV; conditions: CMV AD-169, HFF, without 24 h drug pretreatment
Method: as §1
as §2, with “After pretreatment with AV-9, the monolayers were overlaid with 0.1 ml log10 dilutions of virus (CMV strain AD-169) ranging from 10^-1 to 10^-6.” left out
as §3

[3] = tested on: CMV strain Davis; conditions: MRC-5, plaque reduction, 24 h drug pretreatment
Method: The following procedures were then used to determine inhibitory effects of AV-9 on the replication of CMV. First, confluent monolayers of the human diploid cell line, MRC-5 (ATCC# CCL 171) in 24 well cell culture plates were pretreated with specified concentrations (20 μM, 10 μM, 5 μM, 2.5 μM, 1.0 μM, 0.5 μM and 0.0 μM) of AV-9 for 24 hours. This was accomplished by diluting the stock peptide solution in growth medium (10% fetal bovine serum and 10 μg/ml gentamicin in Dulbecco's MEM (DMEM)) used to overlay the monolayers.
as §2, §3

[4] = tested on: CMV strain Towne; assay type: cell-based, human CMV; conditions: HFF, plaque reduction, without 24 h drug pretreatment
Method: as §1
as §2, with “After pretreatment with AV-9, the monolayers were overlaid with 0.1 ml log10 dilutions of virus (CMV strain AD-169) ranging from 10^-1 to 10^-6.” left out
as §3

[5] = mouse, in vivo
Method: Ten mice were injected intravenously in the tail vein with 0.25 mL of a solution of 26 μg of ^14 C-labelled compound in 10 mL PBS, and ten mice were given the same dose by subcutaneous injection in the abdomen. One mouse from each group was sacrificed at the time points noted in FIGS. 1 and 2, and the noted organs were weighed and digested to homogeneity for scintillation counting. Counts were measured and used to calculate the amount and concentration of drug in each organ.

[6] = blood levels after single subcutaneous injection of labelled compound; assay type: in vivo; conditions: mice
Method: Blood levels in mice resulting from single subcutaneous injection of a 53 μg dose of the labelled compound were also evaluated. […] Peak levels were maintained for about 20 minutes. At 40 minutes and 2 hours, blood levels had declined to about 80% of peak values. […] Evidently, the compound AV-9 reaches the bloodstream rapidly.

[7] = tested on: HCMV strain AD-169; assay: drug combination plaque reduction study (MacSynergy); assay type: cell-based; conditions: human CMV-infected MRC-5 cells, plaque counts
Method: For use in this study, HCMV strain AD-169 was obtained from the American Type Culture Collection, Rockville, Md. and ganciclovirresistant clinical isolate of HCMV, strain D16, was obtained from Kenneth D. Thompson, Loyola University Medical Center, Maywood, Ill. Host MRC-5 cells were cultured in a medium of Basal Medium Eagle (BME) (GIBCO), fetal bovine serum (FBS) (Hyclone Laboratories), 0.035% NaHCO3 and without antibiotics.
Test medium for dilution of virus and for preparation and dilution of compounds was Dulbecco's modified Eagle medium (DMEM), 2% FBS, 0.1% NaHCO3, 50 μg gentamicin/ml.
For drug combination experiments, each of AV-9, DHPG, foscarnet, and […] was prepared in test medium at double the highest concentration used. Each of these compound preparations was then diluted by serial 2-fold dilutions in test medium (except for AZT, which was diluted by serial half-log dilutions).
Growth medium was decanted from established monolayers of MRC-5 cells in 24-well tissue culture plates. Compound dilutions were placed in designated wells of the plates at 0.8 ml/well, with test medium only placed in virus control or cell control wells, and the plates were placed at 37° C. Four wells were used for each different compound dilution. After 24 hr of pre-treatment incubation, the medium was aspirated from each well of the plates. One ml of virus, diluted in test medium was placed in each well except those to be used for cell controls or those to be used for toxicity controls. One ml of sterile test medium was placed in each of these cell or toxicity control wells. The plates were centrifuged at 2200 rpm for 30 minutes at room temperature to allow the virus to adsorb. Medium was aspirated from each well of the plates. The proper individual compound concentrations or combinations were placed in test wells (0.8 ml/well, 4 wells/dilution) or in toxicity control wells. Test medium without compound was added (0.8 ml/well) to each cell control and virus control well. All plates were incubated at 37° C. in a moist atmosphere of 5% CO2, 95% air. […] After 15 minutes, the stain was removed, cells were rinsed in tap water until the water was clear, and the plates were inverted and dried at room temperature. Plaques were counted by use of a dissecting microscope. The plaque counts were entered in the MacSynergy™ program of Prichard and Shipman and 3-D plots were made.

[8] = physchem; conditions: water
[9] = toxicity control mice, immunosuppressed, uninfected; conditions: for Mean Body Weight Change: start of treatment to 24 hr after final treatment; for Surv/Total: toxicity controls
Method: The mice were immunosuppressed by intraperitoneal (i.p.) injection with 100 mg/kg/day of cyclophosphamide administered on days -1, +3, +6, +10, +14 and +18 relative to virus inoculation. […] In a second portion of the study, the compound was administered i.p. in a dose of 0.1 mg/kg/day once daily from day -2 through +10. Ganciclovir in a dose of 50 mg/kg/day was injected i.p. once daily for 10 days beginning 24 hr post-virus exposure (days +1→+10). A total of 15 infected mice/dose were used. […] Five toxicity control mice were used at each dose; these mice were treated in parallel with the infected mice, and were weighed on the initial day of treatment and again 24 after the final treatment. […] Normal controls were weighed and held in parallel with the toxicity controls.

[10] = single s.c. injection, 53 μg labelled compound

For CC(=O)N[C@H](CCCNC(=N)N)C(=O)N[C@H](CCCNC(=N)N)C(=O)N[C@H](CCCNC(=N)N)C(=O)N[C@H](CCCNC(=N)N)C(=O)N[C@H](CCCNC(=N)N)C(=O)N[C@H](CCCNC(=N)N)C(=O)N[C@H](CCCNC(=N)N)C(=O)N[C@H](CCCNC(=N)N)C(=O)N[C@H](CCCNC(=N)N)C(N)=O [AV-9, acetyl-[D-Arg]9 -NH2], the IC50 [1] was 2.6 µM and 4.8 µM and 2.7 µM, the IC50 [2] was 12 µM and the IC50 [3] was 2.3 µM. For the same molecule, the IC50 [4] was 8.7 µM, the “speed of distribution to tissues” value [5] was “rapid distribution of drug to tissues” and the “tissue distribution, organs with highest levels” value [5] was “highest and most prolonged levels are attained in the liver, followed by the kidneys and spleen”. For the same molecule, the “blood level relative to peak values” ([6]; at 40 minutes and 2 hours, single s.c. 53 μg) was “about 80%”, the “blood level relative to peak” value ([6]; at 4 hour, single s.c. 53 μg) was “about 10%” and the blood level ([6]; at 8 hours and 24 hours, single s.c. 53 μg) was “threshold of detection”. For the same molecule, the “time near peak blood levels are maintained” value ([6]; single s.c. 53 μg, summary statement) was 20 to 120 min, the near-peak blood level [6, 10] was “around 1 μg/ml” and the “time peak blood levels were maintained” value [6, 10] was “about 20 minutes”. For the same molecule, the “time to near-peak blood levels following injection” value [6, 10] was 5 min, the “antagonism in combination with phosphonoformic acid (foscarnet)” value [7] was “insignificant amount of antagonism” and the “synergy in combination with AZT” value [7] was “No synergy”. For the same molecule, the “synergy in combination with DHPG” value [7] was “intense synergy”, the “synergy in combination with phosphonoformic acid (foscarnet)” value [7] was “moderate amount of synergy” and the solubility [8] was roughly 1000 mg/mL (≈ 683 mM). For the same molecule, the “Mean Body Weight Change” value ([9]; 0.07 mg/kg/day i.p. every other day) was 2.7 g, the “Mean Body Weight Change” value ([9]; 0.1 mg/kg/day i.p. daily days -2 to +10) was 3.1 g and the “Mean Body Weight Change” value ([9]; 0.2 mg/kg/day i.p. every other day) was 2.2 g. For the same molecule, the “Mean Body Weight Change” value ([9]; 0.7 mg/kg/day i.p. every other day) was 2.4 g, the “Mean Body Weight Change” value ([9]; 2.0 mg/kg/day i.p. every other day) was 1.9 g and the “other signs of toxicity (hunching, prostration, ruffled fur, tremors)” value ([9]; all doses) was “No other signs of toxicity”. For the same molecule, the “toxicity, overall assessment” value ([9]; all doses, Table 3) was “reasonably non-toxic”, the Surv/Total ([9]; 0.07 mg/kg/day i.p., days -2,0,+2,+4,+6,+8,+10) was 5/5 and the Surv/Total ([9]; 0.1 mg/kg/day i.p., daily days -2 through +10) was 5/5. The Surv/Total ([9]; 0.2 mg/kg/day i.p., days -2,0,+2,+4,+6,+8,+10) was 5/5, the Surv/Total ([9]; 0.7 mg/kg/day i.p., days -2,0,+2,+4,+6,+8,+10) was 5/5 and the Surv/Total ([9]; 2.0 mg/kg/day i.p., days -2,0,+2,+4,+6,+8,+10) was 5/5.
